Where a name gives a salt, the structure may show the parent alone.
Experiments:
[1] = target: striatal dopamine transporters (DAT) (Mus musculus, UniProt Q61327); assay: In vivo DAT occupancy: inhibition of [^125I]RTI-121 specific binding in striatum; set-up: species or system CD-1 mice; conditions: 10.0 μmol/kg i.p.
CD-1 mice = assay: Locomotor activity: basal and; format: in vivo
σ1 receptors [2] = target: T1, σ1 receptors (Mus musculus, UniProt O55242); assay: In vitro σ1 receptor binding, [^3H]; set-up: species or system CD-1 mouse; conditions: for Sigma1 nH: 3.0 nM [^3H](+)pentazocine, 37 °C, 180 min
T1 sequence (O55242 whole entry): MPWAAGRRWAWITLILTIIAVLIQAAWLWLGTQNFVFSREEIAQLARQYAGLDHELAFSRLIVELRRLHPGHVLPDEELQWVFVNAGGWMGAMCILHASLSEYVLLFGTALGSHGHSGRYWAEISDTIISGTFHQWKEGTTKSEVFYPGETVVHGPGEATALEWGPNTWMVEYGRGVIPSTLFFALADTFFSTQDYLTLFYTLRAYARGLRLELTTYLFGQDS

σ2 receptors [3] = target: T2, σ2 receptors (Mus musculus, UniProt Q8VD00); assay: In vitro σ2 receptor binding, [^3H]DTG/; set-up: species or system CD-1 mouse
T2 sequence (Q8VD00 1-176): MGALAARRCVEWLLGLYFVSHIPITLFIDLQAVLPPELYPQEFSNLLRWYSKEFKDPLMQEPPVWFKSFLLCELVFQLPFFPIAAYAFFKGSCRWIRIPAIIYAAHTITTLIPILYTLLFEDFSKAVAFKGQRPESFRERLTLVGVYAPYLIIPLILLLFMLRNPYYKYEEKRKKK

σ1 receptors [4] = target: T1, σ1 receptors; conditions: ref Lever et al., 2014b, cited from earlier work
DAT = conditions: read-out: Ki for the DAT (apparent affinity); ref Garcés-Ramírez et al., 2011; cited from earlier work
Swiss Webster mice = conditions: doses as low as 0.1 mg/kg (0.29 μmol/kg); ref Matsumoto et al., 2001a; cited from earlier work
σ2 receptors [5] = conditions: read-out: Ki for σ2 receptors; ref Kovács and Larson (1995); cited from earlier work
σ1 receptors [6] = conditions: read-out: σ1 Ki; ref Lever et al., 2015; cited from earlier work

Chain of striatal dopamine transporters (DAT) (Q61327 whole entry): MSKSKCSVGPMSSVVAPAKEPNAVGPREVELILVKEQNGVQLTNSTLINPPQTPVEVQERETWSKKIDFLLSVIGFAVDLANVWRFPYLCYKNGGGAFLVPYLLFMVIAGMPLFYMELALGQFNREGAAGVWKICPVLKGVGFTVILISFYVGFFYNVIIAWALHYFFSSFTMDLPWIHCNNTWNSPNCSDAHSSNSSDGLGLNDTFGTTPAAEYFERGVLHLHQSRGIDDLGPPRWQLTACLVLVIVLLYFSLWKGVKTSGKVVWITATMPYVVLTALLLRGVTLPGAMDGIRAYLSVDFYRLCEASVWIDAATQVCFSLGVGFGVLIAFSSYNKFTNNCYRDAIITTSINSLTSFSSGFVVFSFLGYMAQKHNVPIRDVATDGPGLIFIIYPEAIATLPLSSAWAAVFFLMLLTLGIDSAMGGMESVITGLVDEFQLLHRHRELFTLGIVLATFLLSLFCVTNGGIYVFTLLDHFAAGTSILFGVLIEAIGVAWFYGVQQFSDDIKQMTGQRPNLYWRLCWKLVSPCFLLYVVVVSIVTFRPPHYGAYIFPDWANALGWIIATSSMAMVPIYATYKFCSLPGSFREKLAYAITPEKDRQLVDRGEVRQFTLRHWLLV

CN1CCN(CCc2ccc(Cl)c(Cl)c2)CC1 [BD1063, 1-[2-(3,4-dichlorophenyl)ethyl]-4-methylpiperazine]
Inhibition of striatal [^125I]RTI-121 specific binding [1]: did not inhibit
Increase of (−)-cocaine-induced hyperactivity (CD-1 mice; 3.16 μmol/kg i.p., not statistically significant): 17%
Decrease of (−)-cocaine-induced hyperactivity (CD-1 mice; 31.6 μmol/kg i.p., not statistically significant): 19%
Effect on basal locomotor activity (CD-1 mice; i.p., E-IA-DM-PE-PIPZE up to 3.16 μmol/kg, BD1063 3.16 and 31.6 μmol/kg, 60 min): did not significantly affect basal activity
Affinity for σ1 receptors relative to (−)-cocaine (higher) (σ1 receptors [2]): ~200 fold
Affinity for σ1 receptors relative to PD144418 (lower) (σ1 receptors [2]): 30 fold
IC50 (σ1 receptors [2]): 0.00968 ± 0.001 µM
Ki (σ1 receptors [2]): 0.00598 ± 0.00062 µM
Sigma1 nH (σ1 receptors [2]): 1.17 ± 0.08
Selectivity Ki Ratio σ2/σ1 (σ1 receptors [2]; CD-1 mouse whole brain membranes): 127
IC50 (σ2 receptors [3]): 0.843 ± 0.104 µM
Ki (σ2 receptors [3]): 0.762 ± 0.094 µM
Sigma2 nH (σ2 receptors [3]; 3.0 nM [^3H]DTG/500 nM (+)pentazocine, 25 °C, 60 min): 0.96 ± 0.13
Occupancy of cerebral σ1 receptors (σ1 receptors [4]; doses ≥ 3.16 μmol/kg, in the absence of (−)-cocaine): ≥ 89%
ED50 for σ1 occupancy, brain (σ1 receptors [4]; same protocol): 0.62 µmol/kg
ED50 for σ1 occupancy, heart (σ1 receptors [4]; same protocol): 0.14 µmol/kg
ED50 for σ1 occupancy, lung (σ1 receptors [4]; same protocol): 0.20 µmol/kg
ED50 for σ1 occupancy, spleen (σ1 receptors [4]; same protocol): 1.47 µmol/kg
Ki (DAT): 8 µM
Protection from (−)-cocaine-induced convulsions (Swiss Webster mice): protect

COc1ccc2c(c1)[C@]13CCCC[C@@H]1[C@H](C2)N(C)CC3 [Dextromethorphan, dextromethorphan hydrobromide]
IC50 (σ1 receptors [2]): 0.0975 ± 0.0069 µM
Ki (σ1 receptors [2]): 0.0631 ± 0.0045 µM
Sigma1 nH (σ1 receptors [2]): 0.88 ± 0.07
IC50 (σ2 receptors [3]): 30 ± 2.82 µM
Ki (σ2 receptors [3]): 26.8 ± 2.53 µM
Ki (σ2 receptors [5]): 1.74 µM
Ki (σ1 receptors [6]): 0.063 µM
